According to PubChem BioAssay AID338 (DTP/NCI, 2004):
Where “and” joins values, the source holds several entries; their conditions need not be identical. Equal entries are not always repeated. Toxic doses and inconclusive results are not listed. How the source made its calls: active means survival T/C of 150% or more; inactive means T/C below 125% in these data.

Test system: BDF1 mice, P388 leukemia (terephthalanilide-resistant), survival T/C
Experiment: NCI In Vivo Anticancer Drug Screen. Data for tumor model P388 Leukemia resistant to A Terephthalanilide; NSC 38280 (intraperitoneal) in B6D2F1 (BDF1) mice
Settings: endpoint: median survival time, higher = longer survival
Protocol: The antitumor activity of compounds was measured in mice bearing transplantable tumors. Survival or tumor size were measured and the results are expressed as the measurement made in the treated group (T) divided by the measurement made in the vehicle treated control group (C). The tumor model used in this assay is P388 Leukemia resistant to A Terephthalanilide; NSC 38280 (intraperitoneal) in B6D2F1 (BDF1) mice

[1] = dose: 8.0 mg/kg/injection, schedule: Q01DX010 (ip), vehicle: saline
[2] = dose: 16.0 mg/kg/injection, schedule: Q01DX010 (ip), vehicle: saline
[3] = dose: 32.0 mg/kg/injection, schedule: Q01DX010 (ip), vehicle: saline
[4] = dose: 64.0 mg/kg/injection, schedule: Q01DX010 (ip), vehicle: saline
[5] = dose: 18.0 mg/kg/injection, schedule: Q01DX010 (ip), vehicle: saline
[6] = dose: 40.0 mg/kg/injection, schedule: Q01DX010 (ip), vehicle: saline

Measured: T/C

c1ccc(CNc2ncnc3[nH]ncc23)cc1
inactive: [1] 90 % of control | [2] 90 % of control and 95 % of control | [3] 90 % of control and 100 % of control | [4] 90 % of control and 105 % of control

C[C@]12C=CC(=O)C=C1CC[C@@H]1[C@@H]2C(=O)C[C@@]2(C)[C@H]1CC[C@]2(O)C(=O)CO
inactive: dose: 0.12 mg/kg/injection, schedule: Q01DX Z (sc), vehicle: steriod suspending solution 100 % of control | dose: 12.5 mg/kg/injection, schedule: Q01DX Z (sc), vehicle: steriod suspending solution 104 % of control | dose: 25.0 mg/kg/injection, schedule: Q01DX010 (sc), vehicle: steriod suspending solution 105 % of control | dose: 25.0 mg/kg/injection, schedule: Q01DX Z (sc), vehicle: steriod suspending solution 100 % of control and 109 % of control | dose: 50.0 mg/kg/injection, schedule: Q01DX Z (sc), vehicle: steriod suspending solution 100 % of control | dose: 100.0 mg/kg/injection, schedule: Q01DX010 (sc), vehicle: steriod suspending solution 88 % of control | dose: 200.0 mg/kg/injection, schedule: Q01DX010 (sc), vehicle: steriod suspending solution 88 % of control

CCCNC(=NC)c1ccc(NC(=O)c2ccc(C(=O)Nc3ccc(C(=NC)NCCC)cc3)cc2)cc1
inactive: dose: 5.2 mg/kg/injection, schedule: Q01DX010 (ip), vehicle: saline 100 % of control | [1] 100 % of control | dose: 12.0 mg/kg/injection, schedule: Q01DX010 (ip), vehicle: saline 111 % of control | [5] 111 % of control

O=C(Nc1ccc(C2=NCCN2)cc1)c1ccc(NC(=O)c2ccc(C3=NCCN3)cc2)cc1
inactive: [5] 100 % of control | dose: 27.0 mg/kg/injection, schedule: Q01DX010 (ip), vehicle: saline 100 % of control | [6] 100 % of control | dose: 60.0 mg/kg/injection, schedule: Q01DX010 (ip), vehicle: saline 100 % of control

[I][Hg][CH2]C1COC([CH2][Hg][I])CO1 (centres undefined)
inactive: dose: 0.78 mg/kg/injection, schedule: Q01DX010 (ip), vehicle: saline 91 % of control | dose: 1.56 mg/kg/injection, schedule: Q01DX010 (ip), vehicle: saline 95 % of control | dose: 3.13 mg/kg/injection, schedule: Q01DX010 (ip), vehicle: saline 91 % of control

O=C(Nc1ccc(C2=NCCN2)cc1)c1cccc(C(=O)Nc2ccc(C3=NCCN3)cc2)c1
inactive: [1] 112 % of control
active: [4] 150 % of control

S=c1nc[nH]c2nc[nH]c12
active: dose: 80.0 mg/kg/injection, schedule: Q01DX Z (ip), vehicle: saline 154 % of control
inactive: dose: 5.0 mg/kg/injection, schedule: Q01DX010 (ip), vehicle: alkali diluted with saline 105 % of control | dose: 5.0 mg/kg/injection, schedule: Q01DX Z (ip), vehicle: saline 100 % of control | dose: 10.0 mg/kg/injection, schedule: Q01DX010 (ip), vehicle: alkali diluted with saline 88 % of control | dose: 10.0 mg/kg/injection, schedule: Q01DX Z (ip), vehicle: saline 100 % of control and 104 % of control | dose: 20.0 mg/kg/injection, schedule: Q01DX010 (ip), vehicle: alkali diluted with saline 100 % of control | dose: 20.0 mg/kg/injection, schedule: Q01DX Z (ip), vehicle: saline 100 % of control and 109 % of control | dose: 40.0 mg/kg/injection, schedule: Q01DX010 (ip), vehicle: alkali diluted with saline 94 % of control | dose: 40.0 mg/kg/injection, schedule: Q01DX Z (ip), vehicle: saline 122 % of control

O=c1[nH]c(=O)n(C2CC(O)C(CO)O2)cc1F (centres undefined)
inactive: dose: 5.0 mg/kg/injection, schedule: Q01DX010 (ip), vehicle: saline 100 % of control | dose: 10.0 mg/kg/injection, schedule: Q01DX010 (ip), vehicle: saline 90 % of control and 104 % of control | dose: 20.0 mg/kg/injection, schedule: Q01DX010 (ip), vehicle: saline 90 % of control and 113 % of control | [6] 104 % of control and 118 % of control
active: dose: 80.0 mg/kg/injection, schedule: Q01DX010 (ip), vehicle: saline 159 % of control

O=C(Nc1cccc(C(=O)Nc2ccc(C3=NCCN3)cc2)c1)c1ccc(C2=NCCN2)cc1
inactive: dose: 54.0 mg/kg/injection, schedule: Q01DX010 (ip), vehicle: saline 117 % of control

c1ccc(CCSc2ncnc3nc[nH]c23)cc1
inactive: dose: 62.5 mg/kg/injection, schedule: Q01DX010 (ip), vehicle: saline 90 % of control | dose: 125.0 mg/kg/injection, schedule: Q01DX010 (ip), vehicle: saline 90 % of control | dose: 250.0 mg/kg/injection, schedule: Q01DX010 (ip), vehicle: saline 100 % of control | dose: 500.0 mg/kg/injection, schedule: Q01DX010 (ip), vehicle: saline 100 % of control

CCCCn1cnc2c(=S)nc[nH]c21
inactive: [2] 86 % of control | [3] 90 % of control

O[C@H](CN1CC1)[C@@H](O)CN1CC1
active: dose: 125.0 micrograms/kg/injection, schedule: Q01DX010 (ip), vehicle: saline 200 % of control | dose: 250.0 micrograms/kg/injection, schedule: Q01DX010 (ip), vehicle: saline 175 % of control
inactive: dose: 62.5 micrograms/kg/injection, schedule: Q01DX010 (ip), vehicle: saline 120 % of control | dose: 500.0 micrograms/kg/injection, schedule: Q01DX010 (ip), vehicle: saline 120 % of control
